Experimental findings from patent US20100105746A1, “METHOD FOR TREATING METABOLIC DISEASES” (priority 2008, published 2010) are described below.

Structures are written as SMILES. Where “and” joins values, the source holds several entries; their conditions need not be identical. Equal values may be shown once.

The nature of data set [1]: Oral glucose tolerance test (OGTT) in rats with diet-induced obesity (Example 5). The class given is in vivo, rat. To be noted: for Glucose concentration excursion (baseline to maximum) / Glucose concentration maximum: OGTT day 21, DIO rats; for Time to maximum (glucose concentration): OGTT day 21, dextrose 2 g/kg. The protocol:
As part of the study described in Example 4, an oral glucose tolerance test (OGTT) was performed on day 21 of the dosing period, after a 2-4 hour fast. Dextrose (2 g/kg) was administered by oral gavage. Blood for glucose analysis was collected at 0, 15, 30, 60, 120 and 180 minutes after dextrose administration. At each time point, 0.25 ml whole blood was collected in EDTA, processed to plasma, and analyzed for blood glucose with a low-volume glucose kit.

The nature of data set [2]: Body weight, food consumption and liver weight in diet-induced obese (DIO) rat model (Example 4). It is filed as in vivo. The protocol: Male Sprague-Dawley rats were acclimated for 7 weeks on a high-fat diet before commencement of dose administration, and maintained on the same diet throughout the subsequent dosing period of 23 days. The high-fat diet (D12492 commercially available from Research Diets, Inc., New Brunswick, N.J.) was one in which at least 60% of calories are derived from fat.
Dose levels of gemfibrozil (50 mg/kg) and sibutramine (10 mg/kg) were selected based on published reports. All treatments were administered once daily by oral gavage in 10 ml vehicle. A vehicle-only control was also administered. Each treatment group consisted of 10 animals.
Body weight of each animal was measured weekly during the 7-week acclimation period and five times weekly during the 23-day dosing period. Food consumption was recorded twice weekly during the 7-week acclimation period and five times weekly during the 23-day dosing period.
Animals were sacrificed and liver weights measured at conclusion of the study.

Data set [3] in a line: Terminal fasting serum glucose and lipids in rats with diet-induced obesity (Example 6). The class given is in vivo, rat. To be noted: DIO rats, vs vehicle control. The protocol: As part of the study described in Example 4, a terminal blood sample (0.5 ml whole blood in EDTA) was collected on day 24, after a 12-18 hour fast. Whole blood was processed to serum, and analyzed for glucose, total cholesterol, HDL cholesterol, free fatty acids and total triglycerides.

Data set [4] is described as follows: Plasma lipids, lipoproteins and liver weight in normal rats versus fibrates (Example 8). As to conditions: once daily p.o. 7 days, approximation. It is filed as in vivo, rat. The source says:
The study design was based on the protocols used in Examples 1-3. Male Sprague-Dawley rats were provided normal chow ad libitum, both before and during the study period. […] Six rats were assigned to each treatment group (8 to the vehicle control). The study terminated on the day following administration of the seventh dose (day 8), with terminal blood collected for plasma lipid and lipoprotein analyses including LC-MS-based determination of lipid profiles, total and free cholesterol analyses, and lipoprotein cholesterol determinations (VLDL, LDL and HDL).
In order to elucidate the impact of romazarit on plasma lipoproteins, an ultraviolet (UV) size exclusion chromatography (SEC) system was used to separate plasma into broad lipoprotein-containing fractions that were based on relative retention times of human VLDL (very low density lipoprotein), LDL (low density lipoprotein), and HDL (high density lipoprotein) standards. These fractions were collected for cholesterol assays and the UV chromatograms were integrated to provide relative quantitation of the three lipoprotein types. It is important to note that since the UV absorbance measurement is not specific for lipoproteins and may also derive from other plasma constituents that co-elute with a particular lipoprotein, the relative quantitation data reported here is an approximation. The HDL fraction in particular may have included such co-eluting species, as evidenced by the relatively high integrated area values for this fraction.

Where [5] appears, read: DIO rats, 10 mg/kg once daily p.o.

For `Cc1ccc(C)c(OCCCC(C)(C)C(=O)O)c1` [gemfibrozil], in data set [1] (50 mg/kg), the “Glucose concentration excursion (baseline to maximum)” value was 110.0 mg/dL and 111.0 mg/dL; the Glucose concentration maximum was found to be 264.9 mg/dL. Also, in data set [1] (DIO rats, 50 mg/kg), the “Time to maximum (glucose concentration)” value worked out at 30 min. For the same molecule, the food consumption entry in data set [2] (DIO rats, 50 mg/kg once daily p.o., dosing period) is on record as “No significant effect”. Further, the body weight entry in data set [2] (DIO rats, 50 mg/kg once daily p.o., throughout the dosing period) is given as “no significant effect”. In addition, in data set [2] (rat, in vivo, po, 50 mg/kg), the liver weight result is listed as “Increased liver weight”. Also, in data set [3] (day 24, 50 mg/kg once daily), the “terminal (total) cholesterol levels” value is given as “significantly increased”, the “terminal HDL levels” value is recorded as “significantly increased”, the “terminal fasting levels of triglycerides” value is “significant reduction” and the “terminal fasting serum glucose” value was “did not result in a significant decrease”. In addition, in data set [3] (day 24, 50 mg/kg once daily), the “terminal levels of free fatty acids” value is given as “significant increase”. Further, the “VLDL (UV size exclusion chromatography, relative quantitation)” value in data set [4] is reported as “similarly significant effect”.
Consider `CC(C)CC(N(C)C)C1(c2ccc(Cl)cc2)CCC1` (stereo not shown) [sibutramine], for which, in data set [1] (OGTT day 21, 0 minutes, DIO rats, 10 mg/kg), the Glucose concentration baseline is 126.9 mg/dL. In data set [1] (10 mg/kg), the “Glucose concentration excursion (baseline to maximum)” value stood at 74.4 mg/dL and the Glucose concentration maximum amounted to 201.3 mg/dL. In addition, the “Time to maximum (glucose concentration)” value in data set [1] (DIO rats, 10 mg/kg) turned out to be 30 min. For the same molecule, in data set [2] (setting [5]), the “day by which food consumption returned to levels comparable to the vehicle control” value is no more than 8 days and the “time of minimum food consumption” value is listed as no more than 2 days. Also, the body weight result in data set [2] (DIO rats, 10 mg/kg once daily p.o., 23 days) was “significant weight loss”. Also, the liver weight entry in data set [2] (DIO rats, 10 mg/kg once daily p.o., conclusion of the study) is listed as “No increase in liver weight”. In data set [3] (day 24, 10 mg/kg once daily), the “terminal (total) cholesterol levels” value is recorded as “no effect”, the “terminal HDL levels” value is “no significant effect”, the “terminal fasting levels of triglycerides” value is recorded as “significant reduction” and the “terminal fasting serum glucose” value is listed as “significant decrease”. Also, the “terminal levels of free fatty acids” value in data set [3] (day 24, 10 mg/kg once daily) is “no effect”.
